Data taken from US7084158B2, “Substituted propargylamines” (Bayer Cropscience S.A., priority 2001, dated 2006).

Columns and labels:
Type in all cases: in vivo
Design in all cases: key: compounds were considered to be active when, at a concentration of 500 ppm or less, they had an activity on the harmful organisms of 50% or more
[1] = test system: Diabrotica undecimpunctata; assay: Example AC: treated soil, southern corn rootworm eggs mortality; conditions: 500 ppm or less, eggs added after 0d, 21d and 42d, after 2 weeks
Description: An aqueous solution of the formulated compound to be examined was mixed with soil. After 0d, 21d and 42d, eggs of the southern corn rootworm (Diabrotica undecimpunctata) were placed together with 2 pre-swollen maize corns into a dish, covered with the treated soil and moisted with 10 ml of water. Soil and eggs were placed in a greenhouse (23° C., 60% relative atmosphere humidity). After 2 weeks of storage, the effect of the compound on the eggs and any larvae hatched therefrom was determined (mortality). The following examples were active: 70, 60, 197, 204.

Heliothis virescens [2] = assay: Example B: tobacco budworm eggs on filter paper/insect diet, mortality; conditions: 500 ppm or less; 24-hour-old eggs dipped, diet treated; after 6 days
[3] = test system: Diabrotica undecimpunctata; assay: Example C: corn rootworm eggs with maize corn, mortality; conditions: 500 ppm or less; 4-5-day-old eggs; after 6 days
Spodoptera exigua [4] = assay: Example Z: cotton leaves with larvae sprayed, sugar beet armyworm mortality; conditions: 500 ppm or less; cotton leaves populated then sprayed; L2 larvae; after 4 days
Description: Cotton leaves were populated with 5 L2 larvae of the sugar beet armyworm (Spodoptera exigua) and then sprayed with an aqueous solution of the formulated compound to be examined. After 4 days of storage at about 23° C., the mortality among the larvae was determined. The following examples were active: 1036, 70, 60, 1047, 197.

[5] = test system: Leptinotarsa decemlineata; assay: Example L: potato leaves and larvae sprayed, Colorado beetle mortality; conditions: 500 ppm or less, after 4 days
Description: Potato leaves were populated with larvae of the Colorado beetle (Leptinotarsa decemlineata). Leaves and larvae were then sprayed with an aqueous solution of the formulated compound to be examined. After 4 days of storage at about 25° C., the effect of the compound on the larvae was determined (mortality). The compounds of the following examples were active: 60, 70, 1002, 1004, 1005, 1036, 1047, 197.

Spodoptera littoralis [6] = assay: Example G: treated L2 larvae and insect diet, Egyptian cotton leafworm mortality; conditions: 500 ppm or less, after 6 days
Description: A Petri dish whose bottom was covered with filter paper and which contained about 5 ml of insect diet is prepared. Five L2 larvae of the Egyptian cotton leafworm (Spodoptera littoralis) were counted into a small beaker. 200 μl of an aqueous solution of the formulated preparation to be examined were pipetted into the beaker. The treated larvae were then poured into the Petri dish, and a further 200 μl of the aqueous solution were distributed over the insect diet. The Petri dish was closed and then stored at about 25° C. in a climatized chamber. After 6 days of storage, the effect of the compound on the larvae was determined (mortality). The compounds of the following examples were active: 29, 70, 60, 159, 1005, 1040, 1042, 1044, 1045, 1046, 1047.

Meloidogyne incognita = assay: Example H: root gall nematode larvae immobilization (contact activity); conditions: 500 ppm or less; 2nd stage larvae; 6 days permanent exposure
Description: In a glass vessel, an aqueous solution of the formulated compound to be examined was added to about 3000 freshly hatched active (mobile) larvae (2nd development stage) of the root gall nematode (Meloidogyne incognita) (final volume 20 ml). After 6 days of permanent exposure of the nematode larvae, the percentage of the individual larvae immobilized by the activity of the compound was determined in comparison to the untreated controls (contact activity). The compounds of the following examples were active: 39, 52, 159, 161, 162, 163, 164, 165, 1045, 1046, 1047, 179, 183, 187, 1048, 298, 206, 208, 227, 230, 1061, 237, 238, 245, 250, 255, 256, 260, 268, 269, 274, 275, 288, 290.

Heliothis virescens [7] = assay: Example AB: cotton leaves with larvae sprayed, tobacco budworm mortality; conditions: 500 ppm or less; cotton leaves with L2 larvae sprayed; after 4 days
Description: Cotton leaves were placed into a Petri dish, populated with 5 L2 larvae of the American tobacco budworm (Heliothis virescens) and sprayed with an aqueous solution of the formulated compound to be examined. After 4 days of storage at about 25° C., the mortality among the larvae was determined. The following examples were active: 70, 1047, 197.

Spodoptera exigua [8] = assay: Example Y: cotton plants sprayed, cut leaves, sugar beet armyworm mortality; conditions: 500 ppm or less, leaves cut after drying, L2 larvae, after 4 days
Description: Cotton plants were sprayed with an aqueous solution of the formulated compound to be examined. After drying, leaves were cut off, placed into a Petri dish and populated with 5 L2 larvae of the sugar beet armyworm (Spodoptera exigua). After 4 days of storage at about 23° C., the mortality among the larvae was determined. The following examples were active: 1036, 70, 60, 1047, 197.

Aphis fabae = assay: Example F: field bean dip, black bean aphid mortality; conditions: 500 ppm or less; plants and aphids dipped; after 3 and 6 days
Description: Germinated field bean seeds (Vicia faba) with radicles were transferred into brown glass bottles filled with tap water and subsequently populated with approximately 100 black bean aphids (Aphis fabae). Plants and aphids were then dipped for 5 seconds into an aqueous solution of the formulated compound to be examined. After the solution had run off, plants and animals were stored in a climatized chamber (16 hours of light/day, 25° C., 40–60% relative atmospheric humidity). After 3 and 6 days of storage, the effect of the compound on the aphids was determined (mortality). The compounds of the following examples were active: 30, 43, 228, 262, 291.

Spodoptera littoralis [9] = assay: Example E: cotton leaves sprayed, Egyptian cotton leafworm L2 larvae mortality; conditions: 500 ppm or less, after 4 days
Description: Leaves of cotton plants were placed into a Petri dish, populated with 10 L2 larvae of the Egyptian cotton leafworm (Spodoptera littoralis) and sprayed with an aqueous solution of the formulated compound to be examined. After 4 days of storage at about 23° C., the effect of the compound on the larvae was determined (mortality). The compounds of the following examples were active: Nos. 18, 70, 1007, 1008, 1009, 1036 und 1038.

Carpocapsa pomonella = assay: Example D: dipped apples, codling moth L1 larvae mortality; conditions: 500 ppm or less, after 14 days
Description: Apples were dipped into an aqueous solution of the formulated compound to be examined. The apples were then populated with 10 L1 larvae of the codling moth (Carpocapsa pomonella). After 14 days of storage at about 25° C., the effect of the compound on the larvae was determined (mortality). The compounds of the following examples were active: Nos. 14, 15, 17, 18, 70, 1007, 1008, 1009, 1036, 1038, 197.

Nilaparvata lugens = assay: Example A: rice leaf dip, leafhopper larvae mortality; conditions: 500 ppm or less; L3 larvae on dipped rice plants; after 6 days
Description: The leaves of 12 rice plants having a stem length of 8 cm were dipped for 5 seconds into an aqueous solution of the formulated compound to be examined. After the solution had run off, the rice plants treated in this manner were placed into a Petri dish and populated with about 20 larvae (L3 stage) of the rice leafhopper species Nilaparvata lugens. The Petri dish was closed and then stored in a climatized chamber (16 hours of light/day, 25° C., 40–60% relative atmospheric humidity). After 6 days of storage, the mortality among the leafhopper larvae was determined. The compounds of the following examples were active: Nos. 29, 32, 42, 43, 51, 70, 84, 1002, 1004, 1005, 1040, 180, 184, 193, 197, 203, 209, 1059, 264, 265, 1066.

Aedes aegypti = assay: Example AG: microtiter plate, yellow fever mosquito larvicidal activity; conditions: 500 ppm or less, after 3 days
Spodoptera exigua [10] = assay: Example S: treated L2 larvae and insect diet, sugar beet army worm mortality; conditions: 500 ppm or less, after 6 days
Description: A Petri dish whose bottom was covered with filter paper and which contains about 5 ml of insect diet is prepared. Five L2 larvae of sugar beet army worm (Spodoptera exigua) were counted into a small beaker. 200 μl of an aqueous solution of the formulated compound to be examined were pipetted into the beaker. The treated larvae were then poured into the Petri dish and a further 200 μl of the aqueous solution were distributed over the insect diet. The Petri dish was closed and then stored at 25° C. in a climatized chamber. After 6 days of storage, the mortality among the larvae was determined. The following examples were active: 1036, 175, 184, 1051, 1054, 1055, 234, 1057, 1059, 1060, 1063, 243, 245, 251, 257, 259, 266, 1065, 1067, 290, 291.

[11] = test system: Trialeurodes vaporariorum; assay: Example AD: bush beans sprayed, white fly larvicidal action; conditions: 500 ppm or less; bush beans sprayed after hatching; after 11 days
Description: For oviposition, bush beans (Phaseolus vulgaris) were populated for 48 hours with adults of the white fly (Trialeurodes vaporariorum). After the larvae had hatched, the plants were sprayed to run-off point with an aqueous solution of the formulated compound to be examined. After 11 days, the larvicidal action was determined. The following examples were active: 1036, 70, 60, 1040, 197.

FC(F)(F)c1cc(C#CCN2CCC(C(F)(F)F)CC2)nc(C(F)(F)F)c1 [Example 204]
active: effect on the eggs and hatched larvae (mortality) [1] | effect on the eggs and hatched larvae (mortality) (Heliothis virescens [2]) | effect on the eggs and hatched larvae (mortality) [3]

CC1CCN(CC#Cc2cc(C(F)(F)F)cc(C(F)(F)F)n2)CC1.Cl [Example 1047]
active: mortality among the larvae (Spodoptera exigua [4]) | effect on the larvae (mortality) [5] | effect on the larvae (mortality) (Spodoptera littoralis [6]) | effect on the eggs and hatched larvae (mortality) (Heliothis virescens [2]) | effect on the eggs and hatched larvae (mortality) [3] | percentage of larvae immobilized (contact activity) (Meloidogyne incognita) | mortality among the larvae (Heliothis virescens [7]) | mortality among the larvae (Spodoptera exigua [8])

CC1CCN(CC#Cc2cc(C(F)(F)F)ccc2Cl)CC1 [Example 30]
active: effect on the aphids (mortality) (Aphis fabae) | effect on the eggs and hatched larvae (mortality) (Heliothis virescens [2])

CCC1CCCN(CC#Cc2ccc(Cl)c(C(F)(F)F)c2)C1 (centres unmarked) [Example 18]
active: effect on the larvae (mortality) (Spodoptera littoralis [9]) | effect on the eggs and hatched larvae (mortality) (Heliothis virescens [2]) | effect on the larvae (mortality) (Carpocapsa pomonella) | effect on the eggs and hatched larvae (mortality) [3]

CC1CCN(CC#Cc2ccc(-c3ccc(F)cc3)c(F)c2)CC1 [Example 228]
active: effect on the aphids (mortality) (Aphis fabae) | effect on the eggs and hatched larvae (mortality) [3]

CC1CCN(CC#Cc2cc([N+](=O)[O-])cc(C(F)(F)F)c2)CC1.Cl [Example 1038]
active: effect on the larvae (mortality) (Spodoptera littoralis [9]) | effect on the eggs and hatched larvae (mortality) (Heliothis virescens [2]) | effect on the larvae (mortality) (Carpocapsa pomonella) | effect on the eggs and hatched larvae (mortality) [3]

C[C@@H]1C[C@H](C)CN(CC#Cc2cc(C(F)(F)F)cc(C(F)(F)F)c2)C1 [Example 43]
active: mortality among the leafhopper larvae (Nilaparvata lugens) | effect on the aphids (mortality) (Aphis fabae) | effect on the eggs and hatched larvae (mortality) [3]

CC1CCN(CC#Cc2ccc(C(F)(F)F)c(Cl)c2)CC1.O=C(O)/C=C/C(=O)O [Example 1008]
active: effect on the larvae (mortality) (Spodoptera littoralis [9]) | effect on the larvae (mortality) (Carpocapsa pomonella)

CC1CCN(CC#Cc2ccc(C#N)c(C(F)(F)F)c2)CC1 [Example 290]
active: effect on the eggs and hatched larvae (mortality) (Heliothis virescens [2]) | larvicidal activity (Aedes aegypti) | effect on the eggs and hatched larvae (mortality) [3] | percentage of larvae immobilized (contact activity) (Meloidogyne incognita) | mortality among the larvae (Spodoptera exigua [10])

CC1CCN(CC#Cc2ccc(C(F)(F)F)c(Cl)c2)CC1.CCCCCCCCC(=O)O [Example 1040]
active: mortality among the leafhopper larvae (Nilaparvata lugens) | effect on the larvae (mortality) (Spodoptera littoralis [6]) | effect on the eggs and hatched larvae (mortality) (Heliothis virescens [2]) | larvicidal action [11] | effect on the eggs and hatched larvae (mortality) [3]
